From paper PMC11053168, “Agonist-selective activation of individual G-proteins by muscarinic receptors” (Scientific Reports, 2024)
Where two headings read alike, the source gives them in different places.

Key:
M3 muscarinic receptor = biological target: T1, M3 muscarinic receptor (Homo sapiens, UniProt P20309); assay: [3H]NMS competition binding, membranes from CHO cells expressing M3; settings: competition with [3H]NMS, mean ± SD, three experiments, read-out: Binding affinity, negative logarithm of Ki (converted)
T1 construct: membranes
T1 sequence (P20309 whole entry): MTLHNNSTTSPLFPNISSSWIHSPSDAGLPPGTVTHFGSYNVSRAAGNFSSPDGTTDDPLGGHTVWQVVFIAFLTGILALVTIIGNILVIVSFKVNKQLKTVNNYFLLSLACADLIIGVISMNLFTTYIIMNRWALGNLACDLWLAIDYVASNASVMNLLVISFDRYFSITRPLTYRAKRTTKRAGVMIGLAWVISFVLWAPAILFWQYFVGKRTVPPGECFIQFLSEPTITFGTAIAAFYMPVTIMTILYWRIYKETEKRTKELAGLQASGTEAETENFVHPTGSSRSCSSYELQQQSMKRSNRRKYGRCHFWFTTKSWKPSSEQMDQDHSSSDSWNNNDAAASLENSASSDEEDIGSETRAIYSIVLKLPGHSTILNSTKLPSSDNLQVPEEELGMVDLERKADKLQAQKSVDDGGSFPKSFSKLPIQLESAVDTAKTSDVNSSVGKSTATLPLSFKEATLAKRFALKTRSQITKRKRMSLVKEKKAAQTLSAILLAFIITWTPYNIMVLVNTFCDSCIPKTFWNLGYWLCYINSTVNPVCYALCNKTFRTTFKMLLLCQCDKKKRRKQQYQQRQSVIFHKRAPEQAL
Description: (§1) Cells were cultured as described previously by Randakova et al.[33]. […] The medium was supplemented with 5 mM butyrate for the last 24 h of culture to increase receptor expression. Cells were washed with (phosphate-buffered saline (PBS), mechanically harvested by scraper and centrifugated 1000 × g for 5 min. Cell pellets were kept at − 80 °C.
(§2) Membranes were prepared as described previously by Randakova et al.[33]. Cells harvested from twenty 100 mm petri dishes (CHO) or 30 ml of cell suspension (Sf9) were suspended in 20 ml of ice-cold incubation medium (100 mM NaCl, 20 mM Na-HEPES, 10 mM MgCl2, pH 7.4) supplemented with 10 mM EDTA and homogenized on ice by two 30‐s strokes using a Polytron homogenizer (Ultra-Turrax; Janke & Kunkel GmbH & Co. KG, IKA-Labortechnik, Staufen, Germany) with a 30 s pause between strokes. Cell homogenates were centrifuged for 5 min at 1000×g to remove whole cells and cell nuclei. The resulting supernatants were centrifuged for 30 min at 30,000×g. Pellets were suspended in a fresh incubation medium, incubated on ice for 30 min, and centrifuged again. The resulting membrane pellets were kept at − 80 °C until assayed within 10 weeks.
(§3) Non-specific binding was determined in the presence of 10 μM unlabelled atropine. Incubations were terminated by filtration through filtration plates multiscreen 96 well Harvest (Merck Millipore) using a Brandel cell harvester (Brandel, Gaithersburg, MD, USA). Filtration plates were dried in a microwave oven, and then 40 μl of liquid scintillator Rotiscint eco plus (Roth) was added. The filtration plates were counted in the Microbeta scintillation counter (PerkinElmer). […] The inhibition constant KI was calculated according to Eq. (2).
(§4) Inhibition constants KI were calculated according to Eq. (2).2 KI=IC50/1+D/KD where IC50 is calculated according to Eq.

M4 muscarinic receptor = biological target: T2, M4 muscarinic receptor (Homo sapiens, UniProt P08173); assay: [3H]NMS competition binding, membranes from CHO cells expressing M4
T2 construct: membranes
T2 sequence (P08173 1-479): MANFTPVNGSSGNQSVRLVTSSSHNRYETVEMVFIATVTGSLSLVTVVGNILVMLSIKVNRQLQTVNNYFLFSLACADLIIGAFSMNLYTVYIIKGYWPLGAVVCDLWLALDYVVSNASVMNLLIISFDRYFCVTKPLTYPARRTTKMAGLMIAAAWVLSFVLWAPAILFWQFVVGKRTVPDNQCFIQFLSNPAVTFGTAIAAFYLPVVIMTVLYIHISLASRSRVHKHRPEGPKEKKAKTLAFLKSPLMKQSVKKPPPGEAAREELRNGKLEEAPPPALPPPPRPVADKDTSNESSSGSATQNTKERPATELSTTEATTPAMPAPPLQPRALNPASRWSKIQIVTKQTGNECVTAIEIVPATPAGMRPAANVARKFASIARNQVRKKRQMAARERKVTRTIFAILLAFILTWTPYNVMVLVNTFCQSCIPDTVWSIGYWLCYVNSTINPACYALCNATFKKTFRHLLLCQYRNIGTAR
Description: as §1, §2, §3, §4

M1 receptor = biological target: T3, M1 receptor (Homo sapiens, UniProt P11229); assay: BRET real-time monitoring of Gq/11 activation via M1 in HEK293T/17 cells; type: cell-based; parameters: expressed in transfected cells; host or cells: HEK293T/17 cells, transient transfection; settings: for Activation of Gαq/11 types: saturating concentration (100 μM; 1 mM for JB-12-2, JB-13-1); for Activation magnitude at G11, % of CBC / Activation magnitude at G15, % of CBC / Activation magnitude at Gq, % of CBC / Activation magnitude at Gα14, % of CBC: 100 μM
T3 sequence (P11229 1-460): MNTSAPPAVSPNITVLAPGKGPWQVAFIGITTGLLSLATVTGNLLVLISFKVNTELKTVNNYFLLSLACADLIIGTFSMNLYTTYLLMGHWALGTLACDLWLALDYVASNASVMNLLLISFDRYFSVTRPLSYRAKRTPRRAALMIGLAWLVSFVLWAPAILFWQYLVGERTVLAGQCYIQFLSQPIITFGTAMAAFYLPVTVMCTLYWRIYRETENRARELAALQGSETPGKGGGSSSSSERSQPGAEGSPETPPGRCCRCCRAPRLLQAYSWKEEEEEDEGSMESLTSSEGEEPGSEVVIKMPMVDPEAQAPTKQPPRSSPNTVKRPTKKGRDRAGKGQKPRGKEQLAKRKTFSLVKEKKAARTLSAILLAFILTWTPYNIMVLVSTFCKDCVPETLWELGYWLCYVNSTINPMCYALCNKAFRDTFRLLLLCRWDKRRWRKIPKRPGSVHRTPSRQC
Description: HE/K293T17 cells were obtained from The Global Bioresource Center ATCC (Manassas, VA, USA). Cells were grown in 100 mm petri dishes in Dulbecco’s modified Eagle’s medium (DMEM) supplemented with 10% fetal bovine serum (FBS), MEM non-essential amino acids, 1 mM sodium pyruvate, and antibiotics (100 units/ml penicillin and 100 μg/ml streptomycin) at 37 °C in a humidified incubator containing 5% CO2[41]. Transfection was performed according to Masuho et al.[41]. […] Gα14 subunit was co-transfected with Ric-8A chaperone (0.21 μg). Cells were cotransfected with a pcDNA3.1 construct encoding the catalytic subunit of pertussis toxin (PTX-S1) (0.21 μg) and constructs encoding Gα15, Gα14, Gα11, Gαq to ensure that the small BRET signals were not contaminated by the possible recruitment of endogenous Gαi/o proteins. The empty vector pcDNA3.1 was used to normalize the amount of DNA in each transfection.
To examine the activation of G-protein signalling in live cells, agonist-dependent cellular measurements of BRET between Venus-Gβ1γ2 and masGRK3ct-Nluc were performed as described by Masuho et al.[41]. […] Cells were harvested by centrifugation at 500×g for 5 min and were resuspended in BRET buffer. About 50,000 to 100,000 cells per well were distributed in 96-well flat-bottomed white microplates (Greiner Bio-One) in a volume of 25 µl. […] BRET measurements were made with a microplate reader (POLARstar Omega, BMG Labtech) equipped with two emission photomultiplier tubes, which enabled the detection of two emissions simultaneously with the highest possible resolution of 20 ms per data point. All measurements were performed at room temperature. […] The average baseline value (basal BRET ratio) recorded before stimulation of cells with an agonist was subtracted from the experimental BRET signal values to obtain the ΔBRET ratio.

SMILES: c1csc(C[N+]23CCC(CC2)CC3)c1 [JB-8A]
- Ki (M3 muscarinic receptor): 14.8 µM
- Ki (M4 muscarinic receptor): 4.57 µM
- Activation of Gαq/11 types (M1 receptor): did not activate any Gαq/11 type

SMILES: C[N+]1(Cc2cccs2)CCOCC1 [JB-12-2]
- Ki (M3 muscarinic receptor): 93.3 µM
- Ki (M4 muscarinic receptor): 17 µM
- Activation of Gαq/11 types (M1 receptor): activated all Gαq/11 types

SMILES: COC(=O)C1=CCCN(Cc2cccs2)C1 [JB-13-1]
- Ki (M3 muscarinic receptor): 355 µM
- Ki (M4 muscarinic receptor; M4, competition with [3H]NMS, mean ± SD, three experiments, read-out: Binding affinity, negative logarithm of Ki (converted)): 77.6 µM
- Activation of Gαq/11 types (M1 receptor): did not activate any Gαq/11 type

SMILES: C[N+]1(Cc2cccs2)CC=CCC1 (centres unmarked) [JR-6, 1-methyl-1-[(thiophen-2-yl)methyl]-1,2,3,6-tetra hydropyridin-1-ium]
- Activation magnitude at G11, % of CBC (M1 receptor): approximately 50%
- Activation magnitude at G15, % of CBC (M1 receptor): approximately 50%
- Activation magnitude at Gq, % of CBC (M1 receptor): approximately 50%
- Activation magnitude at Gα14, % of CBC (M1 receptor): approx. 10%

SMILES: C[N+]1(Cc2ccc(Cl)s2)CC=CCC1 (centres unmarked) [PN-152, 1-[(5-chlorothiophen-2-yl)methyl]-1-methyl-1,2,3,6-tetrahydropyridin-1-ium]
- Activation magnitude at G11, % of CBC (M1 receptor): approx. 30%
- Activation magnitude at G15, % of CBC (M1 receptor): approx. 30%
- Activation magnitude at Gq, % of CBC (M1 receptor): approx. 30%
- Activation magnitude at Gα14, % of CBC (M1 receptor): did not activate
